In US20220040129A1, “TREATMENT OF HYPERAMMONEMIA IN PATIENTS WITH RENAL INSUFFICIENCY” (RECORDATI S.p.A., priority 2019, published 2022):
Where two headings read alike, the source gives them in different places.

Experiment: CARIV-A-001 Part A: single ascending IV doses over 20 minutes in healthy subjects
Assay type: in vivo, human
Details: for CL renal / AUC(0-t) / AUC(0-inf) / clearance / Cmax / half-life / Vd: both sexes, human, iv; for CL renal: plasma and urine; for AUC(0-t) / AUC(0-inf) / clearance / Cmax / half-life / Vd: plasma
Experimental: This study was conducted in healthy male or female volunteers, at a single site to assess the safety and PK profile of an IV formulation of Carbaglu and to determine the absolute bioavailability of the current marketed oral formulation of Carbaglu.
The levels of CGA in plasma and urine were analysed using a fully validated method, which included LC-MS/MS analysis. The PK data were analysed based on a non-compartmental model. A model-based approach was implemented for the characterization of the PK properties of the IV formulation in order to estimate the level of PK exposure after different doses administered with different duration of infusion. […] The PK parameters were determined using SAS (version 9.3), and modelling of the PK data was performed using NONMEM (version 7.3, ICON Solutions). PART A: Mono-Centre, Randomized, Successive Groups, Double-Blind, Placebo-Controlled Study in Healthy Male and Female Subjects
Each cohort included a minimum of 3 and maximum of 5 subjects of each of the two genders.
Three loading doses of CGA over 20 minutes were tested by IV administration, 3.5 mg/kg, 5.0 mg/kg and 7.5 mg/kg. For each of these three doses, 6 subjects were administered CGA and 2 received the placebo.
Plasma concentrations of CGA were measured at 18 timepoints, including a sample preceding the start of the administration, and then between 10 minutes and 48 hours following the initiation of the IV infusion.
The PK analysis of Carbaglu was conducted by using standard non-compartmental approach.

## NC(=O)N[C@@H](CCC(=O)O)C(=O)O [carglumic acid, N-carbamoyl-L-glutamic acid]
IV administration over 20 minutes, healthy volunteers
  Plasma levels observed, up to: up to 26,500 ng/mL
IV doses in the range of 3.5 mg/kg to 7.5 mg/kg
  Dose dependence of AUCinf, AUClast and Cmax: increase linearly
IV over 20 minutes, stable across the doses evaluated
  Percent of dose excreted in urine: ~75%
Part A
  Concentration up to which linearity of PK was shown: up to 26.5 μg/mL
After IV administration
  Dose excreted in the urine as parent compound over 24 hours: 75 % of the dose
3.5 mg/kg, IV over 20 minutes, 3.5 mg/kg, read-out: Renal Clearance (RCl), Mean
  CL renal: 4.33 mL/min/kg
3.5 mg/kg, IV over 20 minutes, 3.5 mg/kg, read-out: Renal Clearance (RCl), Median
  CL renal: 4.17 mL/min/kg
3.5 mg/kg, IV over 20 minutes, 3.5 mg/kg, read-out: Renal Clearance (RCl), Range
  CL renal: 3.33 to 5 mL/min/kg
5 mg/kg, IV over 20 minutes, 5.0 mg/kg, read-out: Renal Clearance (RCl), Mean
  CL renal: 3.83 mL/min/kg
5 mg/kg, IV over 20 minutes, 5.0 mg/kg, read-out: Renal Clearance (RCl), Median
  CL renal: 3.67 mL/min/kg
5 mg/kg, IV over 20 minutes, 5.0 mg/kg, read-out: Renal Clearance (RCl), Range
  CL renal: 3.17 to 5.17 mL/min/kg
7.5 mg/kg, IV over 20 minutes, 7.5 mg/kg, read-out: Renal Clearance (RCl), Mean
  CL renal: 4.33 mL/min/kg
7.5 mg/kg, IV over 20 minutes, 7.5 mg/kg, read-out: Renal Clearance (RCl), Median
  CL renal: 4.17 mL/min/kg
7.5 mg/kg, IV over 20 minutes, 7.5 mg/kg, read-out: Renal Clearance (RCl), Range
  CL renal: 3.5 to 5.33 mL/min/kg
IV over 20 minutes, stable across doses, read-out: Renal clearance (converted)
  CL renal: ~4.17 mL/min/kg
After IV administration, read-out: Renal clearance, median
  CL renal: 265 mL/min
After IV administration, read-out: Renal clearance, range
  CL renal: 183 to 467 mL/min
3.5 mg/kg, IV over 20 minutes, 3.5 mg/kg, read-out: AUC24h, Mean
  AUC(0-t): 9850 ng·h/mL
3.5 mg/kg, IV over 20 minutes, 3.5 mg/kg, read-out: AUC24h, Median
  AUC(0-t): 9690 ng·h/mL
3.5 mg/kg, IV over 20 minutes, 3.5 mg/kg, read-out: AUC24h, Range
  AUC(0-t): 8990 to 11000 ng·h/mL
3.5 mg/kg, IV over 20 minutes, 3.5 mg/kg, read-out: AUCinf, Mean
  AUC(0-inf): 11000 ng·h/mL
3.5 mg/kg, IV over 20 minutes, 3.5 mg/kg, read-out: AUCinf, Median
  AUC(0-inf): 10900 ng·h/mL
3.5 mg/kg, IV over 20 minutes, 3.5 mg/kg, read-out: AUCinf, Range
  AUC(0-inf): 9740 to 12500 ng·h/mL
3.5 mg/kg, IV over 20 minutes, 3.5 mg/kg, read-out: AUClast-timepoint, Mean
  AUC(0-t): 10200 ng·h/mL
3.5 mg/kg, IV over 20 minutes, 3.5 mg/kg, read-out: AUClast-timepoint, Median
  AUC(0-t): 10100 ng·h/mL
3.5 mg/kg, IV over 20 minutes, 3.5 mg/kg, read-out: AUClast-timepoint, Range
  AUC(0-t): 8990 to 11500 ng·h/mL
3.5 mg/kg, IV over 20 minutes, 3.5 mg/kg, read-out: Clearance (Cl), Mean
  clearance: 5.33 mL/min/kg
3.5 mg/kg, IV over 20 minutes, 3.5 mg/kg, read-out: Clearance (Cl), Median
  clearance: 5.33 mL/min/kg
3.5 mg/kg, IV over 20 minutes, 3.5 mg/kg, read-out: Clearance (Cl), Range
  clearance: 4.67 to 6 mL/min/kg
3.5 mg/kg, IV over 20 minutes, 3.5 mg/kg, read-out: Cmax, Mean
  Cmax: 11400 ng/mL
3.5 mg/kg, IV over 20 minutes, 3.5 mg/kg, read-out: Cmax, Median
  Cmax: 11400 ng/mL
3.5 mg/kg, IV over 20 minutes, 3.5 mg/kg, read-out: Cmax, Range
  Cmax: 10700 to 12300 ng/mL
3.5 mg/kg, IV over 20 minutes, 3.5 mg/kg, read-out: T1/2, Mean
  half-life: 20.6 h
3.5 mg/kg, IV over 20 minutes, 3.5 mg/kg, read-out: T1/2, Median
  half-life: 21.1 h
3.5 mg/kg, IV over 20 minutes, 3.5 mg/kg, read-out: T1/2, Range
  half-life: 6.6 to 36.1 h
3.5 mg/kg, IV over 20 minutes, 3.5 mg/kg, read-out: Volume of Distribution (Vd), Mean
  Vd: 9.28 L/kg
3.5 mg/kg, IV over 20 minutes, 3.5 mg/kg, read-out: Volume of Distribution (Vd), Median
  Vd: 8.75 L/kg
3.5 mg/kg, IV over 20 minutes, 3.5 mg/kg, read-out: Volume of Distribution (Vd), Range
  Vd: 3.26 to 15.5 L/kg
5 mg/kg, IV over 20 minutes, 5.0 mg/kg, read-out: AUC24h, Mean
  AUC(0-t): 14800 ng·h/mL
5 mg/kg, IV over 20 minutes, 5.0 mg/kg, read-out: AUC24h, Median
  AUC(0-t): 14900 ng·h/mL
5 mg/kg, IV over 20 minutes, 5.0 mg/kg, read-out: AUC24h, Range
  AUC(0-t): 11100 to 19300 ng·h/mL
5 mg/kg, IV over 20 minutes, 5.0 mg/kg, read-out: AUCinf, Mean
  AUC(0-inf): 16100 ng·h/mL
5 mg/kg, IV over 20 minutes, 5.0 mg/kg, read-out: AUCinf, Median
  AUC(0-inf): 16600 ng·h/mL
5 mg/kg, IV over 20 minutes, 5.0 mg/kg, read-out: AUCinf, Range
  AUC(0-inf): 12300 to 20000 ng·h/mL
5 mg/kg, IV over 20 minutes, 5.0 mg/kg, read-out: AUClast-timepoint, Mean
  AUC(0-t): 15300 ng·h/mL
5 mg/kg, IV over 20 minutes, 5.0 mg/kg, read-out: AUClast-timepoint, Median
  AUC(0-t): 15600 ng·h/mL
5 mg/kg, IV over 20 minutes, 5.0 mg/kg, read-out: AUClast-timepoint, Range
  AUC(0-t): 11500 to 19300 ng·h/mL
5 mg/kg, IV over 20 minutes, 5.0 mg/kg, read-out: Clearance (Cl), Mean
  clearance: 5.33 mL/min/kg
5 mg/kg, IV over 20 minutes, 5.0 mg/kg, read-out: Clearance (Cl), Median
  clearance: 5 mL/min/kg
5 mg/kg, IV over 20 minutes, 5.0 mg/kg, read-out: Clearance (Cl), Range
  clearance: 4.17 to 6.83 mL/min/kg
5 mg/kg, IV over 20 minutes, 5.0 mg/kg, read-out: Cmax, Mean
  Cmax: 15000 ng/mL
5 mg/kg, IV over 20 minutes, 5.0 mg/kg, read-out: Cmax, Median
  Cmax: 15600 ng/mL
5 mg/kg, IV over 20 minutes, 5.0 mg/kg, read-out: Cmax, Range
  Cmax: 8420 to 19100 ng/mL
5 mg/kg, IV over 20 minutes, 5.0 mg/kg, read-out: T1/2, Mean
  half-life: 21.6 h
5 mg/kg, IV over 20 minutes, 5.0 mg/kg, read-out: T1/2, Median
  half-life: 21.4 h
5 mg/kg, IV over 20 minutes, 5.0 mg/kg, read-out: T1/2, Range
  half-life: 12.8 to 29.3 h
5 mg/kg, IV over 20 minutes, 5.0 mg/kg, read-out: Volume of Distribution (Vd), Mean
  Vd: 9.94 L/kg
5 mg/kg, IV over 20 minutes, 5.0 mg/kg, read-out: Volume of Distribution (Vd), Median
  Vd: 10.2 L/kg
5 mg/kg, IV over 20 minutes, 5.0 mg/kg, read-out: Volume of Distribution (Vd), Range
  Vd: 4.62 to 12.8 L/kg
7.5 mg/kg, IV over 20 minutes, 7.5 mg/kg, read-out: AUC24h, Mean
  AUC(0-t): 21600 ng·h/mL
7.5 mg/kg, IV over 20 minutes, 7.5 mg/kg, read-out: AUC24h, Median
  AUC(0-t): 20700 ng·h/mL
7.5 mg/kg, IV over 20 minutes, 7.5 mg/kg, read-out: AUC24h, Range
  AUC(0-t): 19200 to 26900 ng·h/mL
7.5 mg/kg, IV over 20 minutes, 7.5 mg/kg, read-out: AUCinf, Mean
  AUC(0-inf): 23900 ng·h/mL
7.5 mg/kg, IV over 20 minutes, 7.5 mg/kg, read-out: AUCinf, Median
  AUC(0-inf): 23200 ng·h/mL
7.5 mg/kg, IV over 20 minutes, 7.5 mg/kg, read-out: AUCinf, Range
  AUC(0-inf): 20200 to 29100 ng·h/mL
7.5 mg/kg, IV over 20 minutes, 7.5 mg/kg, read-out: AUClast-timepoint, Mean
  AUC(0-t): 22600 ng·h/mL
7.5 mg/kg, IV over 20 minutes, 7.5 mg/kg, read-out: AUClast-timepoint, Median
  AUC(0-t): 22100 ng·h/mL
7.5 mg/kg, IV over 20 minutes, 7.5 mg/kg, read-out: AUClast-timepoint, Range
  AUC(0-t): 19600 to 27800 ng·h/mL
7.5 mg/kg, IV over 20 minutes, 7.5 mg/kg, read-out: Clearance (Cl), Mean
  clearance: 5.33 mL/min/kg
7.5 mg/kg, IV over 20 minutes, 7.5 mg/kg, read-out: Clearance (Cl), Median
  clearance: 5.33 mL/min/kg
7.5 mg/kg, IV over 20 minutes, 7.5 mg/kg, read-out: Clearance (Cl), Range
  clearance: 4.33 to 6.17 mL/min/kg
7.5 mg/kg, IV over 20 minutes, 7.5 mg/kg, read-out: Cmax, Mean
  Cmax: 22900 ng/mL
7.5 mg/kg, IV over 20 minutes, 7.5 mg/kg, read-out: Cmax, Median
  Cmax: 23200 ng/mL
7.5 mg/kg, IV over 20 minutes, 7.5 mg/kg, read-out: T1/2, Mean
  half-life: 24.8 h
7.5 mg/kg, IV over 20 minutes, 7.5 mg/kg, read-out: T1/2, Median
  half-life: 25.5 h
7.5 mg/kg, IV over 20 minutes, 7.5 mg/kg, read-out: T1/2, Range
  half-life: 15.3 to 35.4 h
7.5 mg/kg, IV over 20 minutes, 7.5 mg/kg, read-out: Volume of Distribution (Vd), Mean
  Vd: 11.2 L/kg
7.5 mg/kg, IV over 20 minutes, 7.5 mg/kg, read-out: Volume of Distribution (Vd), Median
  Vd: 10.8 L/kg
7.5 mg/kg, IV over 20 minutes, 7.5 mg/kg, read-out: Volume of Distribution (Vd), Range
  Vd: 7.02 to 17.5 L/kg
IV over 20 minutes, across dose groups 3.5-7.5 mg/kg, read-out: Half-life, mean value (converted)
  half-life: 22 h
IV over 20 minutes, each cohort, read-out: Half-life, range of cohort means
  half-life: 20.6 to 24.8 h
IV over 20 minutes, each cohort, read-out: Volume of distribution (Vd), range of cohort means
  Vd: 9.3 to 11.2 L/kg
IV over 20 minutes, in each cohort, read-out: Total body clearance, mean value (converted)
  clearance: 5.33 mL/min/kg
IV over 20 minutes, read-out: Vss, range of cohort means
  Vd: 2.21 to 2.39 L/kg
After IV administration, overall analysis on the three groups, read-out: Volume of distribution, median
  Vd: 10.2 L/kg
After IV administration, read-out: Terminal half-life, median (converted)
  half-life: ~22 h
After IV administration, read-out: Terminal half-life, range
  half-life: 7 to 36 h
After IV administration, read-out: Total clearance, median
  clearance: 354 mL/min
After IV administration, read-out: Total clearance, range
  clearance: 241 to 502 mL/min
